Assays:
[1] = test system: recombinant human CFTR carrying the premature stop codon (PTC) mutation G542X; assay: CFTR-PTC mutant translation readthrough, Nanoluc tagged CFTR luminescence (G542X cell line); format: cell-based; conditions: in combination with G418, G542X cell line; for CFTR G542X ACTIVITY Fold 10 μM G-418: fold over 10 μM G-418; for EC50: 16HBE cells
Outline: (§1)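 Readthrough is the 48 h compound-induced luminescence increase scaled to that of maximal G418 (125-250 μM). Compounds run from 50 μM final in 2-fold steps, ±10 μM G418, on 16HBE lines carrying Nanoluc-tagged CFTR G542X (extracellular loop 4 tag) or R1162X (C-terminal tag), with 3 μM VX-809 present.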

[2] = test system: recombinant human CFTR carrying the premature stop codon (PTC) mutation R1162X; assay: CFTR-PTC mutant translation readthrough, Nanoluc tagged CFTR luminescence (R1162X cell line); format: cell-based; conditions: for CFTR R1162X ACTIVITY Fold 10 μM G-418: fold over 10 μM G-418, in combination with G418; for EC50: in combination with G418, 16HBE cells, read-out: CFTR R1162X ACTIVITY EC50
Outline: as §1

SMILES	CFTR G542X ACTIVITY Fold 10 μM G-418 [1]	EC50 [1]	CFTR R1162X ACTIVITY Fold 10 μM G-418 [2]	EC50 [2]
O=C1CN(c2ccc(OCc3c(Cl)cccc3C(F)(F)F)cn2)C(=O)N1	A′ (A′ = ≥10X)	< 1000 nM	A′ (A′ = ≥10X)	< 1000 nM
O=C1CN(c2ncc(OCc3c(Cl)cccc3C(F)(F)F)cn2)C(=O)N1	A′ (A′ = ≥10X)	1000 to 10000 nM	A′ (A′ = ≥10X)	1000 to 10000 nM
Cc1cccc(C(F)(F)F)c1COc1cnc(N2CCC(O)(c3cccnc3)CC2)nc1	A′ (A′ = ≥10X)	< 1000 nM	A′ (A′ = ≥10X)	< 1000 nM
Cc1cccc(C(F)(F)F)c1COc1cnc(N2CCC(O)(c3ccccn3)CC2)nc1	A′ (A′ = ≥10X)	< 1000 nM	A′ (A′ = ≥10X)	1000 to 10000 nM
Cc1cccc(C(F)(F)F)c1COc1cnc(N2CCC(N)CC2)nc1	A′ (A′ = ≥10X)	< 1000 nM	A′ (A′ = ≥10X)	1000 to 10000 nM
Cc1cccc(C(F)(F)F)c1COc1cnc(N2CC(=O)NC2=O)nc1	A′ (A′ = ≥10X)	1000 to 10000 nM	A′ (A′ = ≥10X)	1000 to 10000 nM
OCCC1(O)CCN(c2ncc(OCc3c(Cl)cccc3Cl)cn2)CC1	A′ (A′ = ≥10X)	< 1000 nM	A′ (A′ = ≥10X)	< 1000 nM
CC(C)C1NC(=O)N(c2ccc(OCc3c(Cl)cccc3C(F)(F)F)cc2)C1=O (stereo not shown)	A′ (A′ = ≥10X)	< 1000 nM	B′ (B′ = ≥5X to <10X)	1000 to 10000 nM
O=C1NC2(CCCC2)C(=O)N1c1ccc(OCc2c(Cl)cccc2C(F)(F)F)cc1	A′ (A′ = ≥10X)	< 1000 nM	B′ (B′ = ≥5X to <10X)	1000 to 10000 nM
CC1(C)NC(=O)N(c2ccc(OCc3c(Cl)cccc3C(F)(F)F)cc2)C1=O	A′ (A′ = ≥10X)	< 1000 nM	A′ (A′ = ≥10X)	1000 to 10000 nM
CN1CC(=O)N(c2ccc(OCc3c(Cl)cccc3C(F)(F)F)cn2)C1=O	A′ (A′ = ≥10X)	1000 to 10000 nM	C′ (C′ = <5X)	1000 to 10000 nM
CC1(C)NC(=O)N(c2ccc(OCc3c(Cl)cccc3C(F)(F)F)cn2)C1=O	A′ (A′ = ≥10X)	1000 to 10000 nM	B′ (B′ = ≥5X to <10X)	1000 to 10000 nM
Cc1cccc(C(F)(F)F)c1COc1cnc(N2CC3CC(C2)C3O)nc1 (stereo not shown)	A′ (A′ = ≥10X)	1000 to 10000 nM	A′ (A′ = ≥10X)	1000 to 10000 nM
Cc1cccc(C(F)(F)F)c1COc1cnc(N2CCC(O)C(F)(F)C2)nc1 (stereo not shown)	C′ (C′ = <5X)	< 1000 nM	A′ (A′ = ≥10X)	< 1000 nM
Cc1cccc(C(F)(F)F)c1COc1cnc(N2CCC(O)(CCO)CC2)nc1	A′ (A′ = ≥10X)	< 1000 nM	A′ (A′ = ≥10X)	< 1000 nM
NC(=O)N1CCN(c2ncc(OCc3c(Cl)cccc3C(F)(F)F)cn2)CC1	A′ (A′ = ≥10X)	< 1000 nM	A′ (A′ = ≥10X)	< 1000 nM
O=C1CN(c2ncc(OCc3c(Cl)cccc3C(F)(F)F)cn2)CC(CO)N1 (stereo not shown)	A′ (A′ = ≥10X)	1000 to 10000 nM	A′ (A′ = ≥10X)	1000 to 10000 nM
Cc1cccc(C(F)(F)F)c1COc1ccc(N2C(=O)NC(C)(C)C2=O)nc1	A′ (A′ = ≥10X)	1000 to 10000 nM	B′ (B′ = ≥5X to <10X)	1000 to 10000 nM

SMILES	CFTR G542X ACTIVITY Fold 10 μM G-418 [1]	EC50 [1]	CFTR R1162X ACTIVITY Fold 10 μM G-418 [2]	EC50 [2]
Cc1cccc(C(F)(F)F)c1COc1cnc(N2CCN3C(=O)COCC3C2)nc1 (stereo not shown)	A′ (A′ = ≥10X)	< 1000 nM	A′ (A′ = ≥10X)	< 1000 nM
OCc1ncn(-c2ccc(OCc3c(Cl)cccc3OC(F)F)cc2)n1	A′ (A′ = ≥10X)	1000 to 10000 nM	B′ (B′ = ≥5X to <10X)	1000 to 10000 nM
OCc1ncn(-c2ccc(OCc3c(Cl)cccc3OC(F)(F)F)cc2)n1	A′ (A′ = ≥10X)	1000 to 10000 nM	A′ (A′ = ≥10X)	1000 to 10000 nM
Cc1cccc(C(F)(F)F)c1COc1ccc(-n2cnc(CN)n2)cc1	A′ (A′ = ≥10X)	< 1000 nM	A′ (A′ = ≥10X)	1000 to 10000 nM
Cc1cccc(OC(F)F)c1COc1cnc(-n2ccc(CO)n2)nc1	A′ (A′ = ≥10X)	1000 to 10000 nM	C′ (C′ = <5X)	1000 to 10000 nM
OCc1cn(-c2ncc(OCc3c(Cl)cccc3OC(F)F)cn2)cn1	A′ (A′ = ≥10X)	1000 to 10000 nM	B′ (B′ = ≥5X to <10X)	1000 to 10000 nM
OCc1ccn(-c2ncc(OCc3c(Cl)cccc3OC(F)(F)F)cn2)n1	A′ (A′ = ≥10X)	< 1000 nM	B′ (B′ = ≥5X to <10X)	1000 to 10000 nM
Cc1cccc(C(F)(F)F)c1COc1ccc(-n2cc(CO)nn2)nc1	A′ (A′ = ≥10X)	< 1000 nM	A′ (A′ = ≥10X)	< 1000 nM
Cc1cccc(C(F)(F)F)c1COc1ccc(-n2cnc(CN)c2)nc1	A′ (A′ = ≥10X)	< 1000 nM	A′ (A′ = ≥10X)	1000 to 10000 nM
OCc1cnn(-c2ncc(OCc3c(Cl)cccc3C(F)(F)F)cn2)n1	A′ (A′ = ≥10X)	< 1000 nM		1000 to 10000 nM
Cc1cccc(C(F)(F)F)c1COc1ccc(-n2ncc(CO)n2)nc1	A′ (A′ = ≥10X)	< 1000 nM	A′ (A′ = ≥10X)	< 1000 nM
OCc1cc(-c2ncc(OCc3c(Cl)cccc3C(F)(F)F)cn2)no1	A′ (A′ = ≥10X)	< 1000 nM	A′ (A′ = ≥10X)	1000 to 10000 nM
Cc1cccc(C(F)(F)F)c1COc1cnc(-c2cc(CO)on2)nc1	A′ (A′ = ≥10X)	< 1000 nM	A′ (A′ = ≥10X)	1000 to 10000 nM
NC(=O)[C@H]1CCN(c2ncc(OCc3c(Cl)cccc3C(F)(F)F)cn2)C1	A′ (A′ = ≥10X)	1000 to 10000 nM	A′ (A′ = ≥10X)	1000 to 10000 nM
Cc1cccc(C(F)(F)F)c1COc1cnc(N2CC[C@H](C(N)=O)C2)nc1	A′ (A′ = ≥10X)	1000 to 10000 nM	A′ (A′ = ≥10X)	1000 to 10000 nM
O=C1CN(c2ncc(OCc3c(Cl)cccc3C(F)(F)F)cn2)C[C@H](CO)N1	A′ (A′ = ≥10X)	1000 to 10000 nM	A′ (A′ = ≥10X)	1000 to 10000 nM
Cc1cccc(C(F)(F)F)c1COc1cnc(N2C[C@H](O)C[C@H](O)C2)nc1	A′ (A′ = ≥10X)	1000 to 10000 nM	A′ (A′ = ≥10X)	1000 to 10000 nM

Source: patent US20250228865A1, “COMPOUNDS FOR ENHANCING READ THROUGH OF GENES CONTAINING PREMATURE TERMINATION CODONS AND METHODS FOR MAKING AND USING THE SAME” (Sanofi US Services Inc., priority 2022, published 2025)
